The subject of one assay is male Wistar rats. In words: Chronic mild stress (CMS) model, consumption of 1% sucrose solution. The class given is in vivo, rat. The settings on record: for sucrose intake as compared to chronic vehicle administration: control animals; for duration of treatment until increase of sucrose intake reached significance / sucrose consumption (CMS-induced deficit) / sucrose intake at end of treatment vs vehicle-treated controls / sucrose intake at end of treatment vs vehicle-treated stressed animals: stressed animals; for sucrose intake at end of treatment vs vehicle-treated controls / sucrose intake at end of treatment vs vehicle-treated stressed animals: Week 5. From the text: Gene expression profiling of antidepressants should be carried in the context of a behavioral model of depression. […] [Willner, 1997 #144] [Yadid, 2000 #422]. The CMS model was developed to mimic anhedonia, a core symptom of depressive disorders. Chronic sequential administration of a variety of mild stressors causes a decrease in responsiveness to rewards in rats, which is reversed by chronic administration of antidepressants drugs [Willner, 1992 #150]. The CMS model of depression also causes a decrease in body weight [Forbes, 1996 #413] but the magnitude of this decrease is minor and the validity, reliability and utility of the CMS is overall well recognized [Yadid, 2000 #422] [Argyropoulos, 1997 #205] #] [Willner, 1996 #226].
On the basis of sucrose intake scores following two weeks of stress, both stressed and control groups were divided further into matched subgroups (n=8), and for the subsequent five weeks received twice-daily intraperitoneal injections of vehicle (isotonic mannitol solution, pH 4.0, 1 ml/kg) or novelR1 (0.16 mg/kg). […] Sucrose tests were carried out twenty-four hours following the last drug injection (in the case of b.i.d. regime, the second injections on the day preceding the sucrose tests were omitted).
The behavioral results obtained in this study were analyzed by multiple analysis of variance with three between-subjects factors (stress/control, drug treatments and successive sucrose tests). Fisher's LSD test was used for post-hoc comparisons of means.

The subject of assay [1] is tyrosine hydroxylase mRNA. Put plainly: Quantitative in situ hybridization histochemistry in locus coeruleus. The settings on record: LC. It counts as in vivo, rat. As for the experimental part:
In situ hybridization histochemistry was performed according to the procedures described [Bonaventure, 1998 #353] on adjacent tissue sections of the one used for LCM. The plasmid (pBluescript II SK, Stratagene, San Diego, Calif.) containing the cDNA coding for tyrosine hydroxylase (GB:M10244) was linearized and [^35S]UTP labeled cRNA probe was generated by in vitro transcription with T7 polymerase. Sections were hybridized at 50° C. with 1.106 c.p.m of [^35S]UTP labeled cRNA probe (80 μl per section). After high stringency washes, the sections were exposed to Kodak BiomaxMR film for sixteen hours. [^14C] standard strips (American Radiolabeled chemicals Inc., St Louis, Missouri) were co-exposed to allow densitometry. Autoradiograms were quantified with the aid of an MCID-M4 3.0 Image Analysis system (Imaging Research, St. Catharines, Ontario, Canada). Optical densities in the LC were transformed into levels of bound radioactivity after calibration of the image analyzer with grey-values generated by co-exposed standards. The hybridization signal was expressed as μCi/g. The Student's t-test was used for comparison between the groups.

Each structure is given as a SMILES string. Where a name gives a salt, the structure may show the parent alone.

As for `Cc1nc2ccccn2c(=O)c1CCN1CCc2oc3ccccc3c2C1` [novelR1], in the assay with male Wistar rats (CMS), the “sucrose intake at the end of the behavioral experiment” value (from here on “sucrose intake at the end”) stood at 13 grams. Moreover, the “sucrose intake at the end” value in the assay with male Wistar rats (control) turned out to be 13 grams. For the same molecule, in the assay on male Wistar rats, the “sucrose intake as compared to chronic vehicle administration” value is listed as “no significant effect”, the “duration of treatment until increase of sucrose intake reached significance” value is “two”, the “sucrose consumption (CMS-induced deficit)” value is on record as “fully reversed” and the “sucrose intake at end of treatment vs vehicle-treated controls” value is recorded as “did not differ”. In the assay with male Wistar rats, the “sucrose intake at end of treatment vs vehicle-treated stressed animals” value is “significantly higher”. In addition, the “up-regulation of tyrosine hydroxylase mRNA level by in situ hybridization” value (from here on “up-regulation”) in assay [1] (drug/CMS group) is reported as “confirmed”. Also, in assay [1] (unstressed rats), the “up-regulation” value is “confirmed”.
Take `CN(C)CCCN1c2ccccc2CCc2ccccc21` [imipramine, imipramine HCl]: in the assay with male Wistar rats (CMS), the “sucrose intake at the end” value is listed as 13 grams. The “sucrose intake at the end” value with male Wistar rats (control) is listed as 13 grams. In the assay on male Wistar rats, the “sucrose intake as compared to chronic vehicle administration” value is reported as “did not change the sucrose intake”, the “duration of treatment until increase of sucrose intake reached significance” value was “three”, the “sucrose consumption (CMS-induced deficit)” value was “gradually increased the sucrose consumption” and the “sucrose intake at end of treatment vs vehicle-treated controls” value was “comparable”. For the same molecule, the “sucrose intake at end of treatment vs vehicle-treated stressed animals” value in the assay on male Wistar rats is “significantly higher”. Further, the “up-regulation” value in assay [1] (drug/CMS group) is given as “confirmed”. Further, in assay [1] (unstressed rats), the “up-regulation” value is listed as “confirmed”.
